Test results from patent US7915293B2, “Ubiquitin ligase inhibitors” (Rigel Pharmaceuticals, Inc., priority 2003, dated 2011).

target: E3 (His-APC11/APC2-"APC") (Homo sapiens, UniProt Q9NYG5+Q9UJX6); test: Plate-based E3 ligase assay (APC FLAG), auto-ubiquitination; format: biochemical; set-up: key: “+” indicates that the compound exibits inhibitory activity; “−” indicates that low or no inhibitory activity was observed; conditions: 8 concentrations tested
Method: E3 (His-APC11/APC2-“APC”) auto-ubiquitination was measured as described in U.S. patent application Ser. No. 09/826,312 (Publication No. US-2002-0042083-A1), which is incorporated herein in its entirety. Details of the protocol are described below. Activity in the presence of the compound was determined relative to a parallel control in which only DMSO was added. Values of the IC50 were typically determined using 6 or 8 different concentrations of the compound, although as few as 2 concentrations may be used to approximate the IC50 value.
Nickel-coated 96-well plates (Pierce 15242) were blocked for 1 hour with 100 μl of blocking buffer at room temperature. The plates were washed 4 times with 225 μl of 1×PBS and 80 μl of the reaction buffer were added that contained 100 ng/well of Flag-ubiquitin. To this, 10 μl of the test compound diluted in DMSO were added. After the test compound was added, 10 μl of E1 (human), E2 (Ubch5c), and APC in Protein Buffer was added to obtain a final concentration of 5 ng/well of E1, 20 ng/well of E2 and 100 ng/well of APC. The plate were shaken for 10 minutes and incubated at room temperature for 1 hour. After incubation, the plates were washed 4 times with 225 μl of 1×PBS and 100 μl/well of Antibody Mix were added to each well. The plates were incubate at room temperature for another hour after which they were washed 4 times with 225 μl of 1×PBS and 100 μl/well of Lumino substrate were added to each well. The luminescence was measured by using a BMG luminescence microplate reader.
To prepare the Blocking Buffer (1 liter; 1% Casein in 1×PBS), 10 grams of Casein (Hammersten Grade Casein from Gallard-Schlesinger Inc. #440203) were placed into 1 liter of 1×PBS, stirred on a hot plate and kept between 50-60° C. for an hour. The buffer was allowed to cool to room temperature and then filtered using a Buchner Funnel (Buchner filter funnel 83 mm 30310-109) and Whatman filter paper (Whatman Grade No. 1 Filter paper 28450-070). It was stored at 4° C. until used.
The reaction buffer consisted of 62.5 mM Tris pH 7.6 (Trizma Base—Sigma T-8524), 3 mM MgCl2 (Magnesium Chloride—Sigma M-2393), 1 mM DTT (Sigma D-9779), 2.5 mM ATP (Roche Boehringer Mann Corp. 635-316), 100 ng/well of Flag-ubiquitin, 0.1% BSA (Sigma A-7906), and 0.05% Tween-20 (Sigma P-7949).
The Protein Buffer consisted of 20 mM Tris pH 7.6, 10% glycerol (Sigma G-5516) and 1 mM DTT.
The antibody mix consisted of 0.25% BSA (Sigma A-7906) in 1×PBS, 1/50,000 anti-Flag (Sigma F-3165), 1/100,000 of anti-Mouse IgG-HRP (Jackson Immunoresearch #115-035-146).
The substrate mix consisted of SuperSignal Substrate from Pierce (catalog number 37070ZZ) and was prepared by mixing 100 ml of the peroxide solution, 100 ml of the enhancer solution and 100 ml of Milli-Q® water.

E3 (His-APC11/APC2-"APC"), sequence (Q9NYG5 whole entry): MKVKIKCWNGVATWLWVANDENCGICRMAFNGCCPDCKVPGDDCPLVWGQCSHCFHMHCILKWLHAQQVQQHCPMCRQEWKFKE
E3 (His-APC11/APC2-"APC"), sequence (Q9UJX6 whole entry): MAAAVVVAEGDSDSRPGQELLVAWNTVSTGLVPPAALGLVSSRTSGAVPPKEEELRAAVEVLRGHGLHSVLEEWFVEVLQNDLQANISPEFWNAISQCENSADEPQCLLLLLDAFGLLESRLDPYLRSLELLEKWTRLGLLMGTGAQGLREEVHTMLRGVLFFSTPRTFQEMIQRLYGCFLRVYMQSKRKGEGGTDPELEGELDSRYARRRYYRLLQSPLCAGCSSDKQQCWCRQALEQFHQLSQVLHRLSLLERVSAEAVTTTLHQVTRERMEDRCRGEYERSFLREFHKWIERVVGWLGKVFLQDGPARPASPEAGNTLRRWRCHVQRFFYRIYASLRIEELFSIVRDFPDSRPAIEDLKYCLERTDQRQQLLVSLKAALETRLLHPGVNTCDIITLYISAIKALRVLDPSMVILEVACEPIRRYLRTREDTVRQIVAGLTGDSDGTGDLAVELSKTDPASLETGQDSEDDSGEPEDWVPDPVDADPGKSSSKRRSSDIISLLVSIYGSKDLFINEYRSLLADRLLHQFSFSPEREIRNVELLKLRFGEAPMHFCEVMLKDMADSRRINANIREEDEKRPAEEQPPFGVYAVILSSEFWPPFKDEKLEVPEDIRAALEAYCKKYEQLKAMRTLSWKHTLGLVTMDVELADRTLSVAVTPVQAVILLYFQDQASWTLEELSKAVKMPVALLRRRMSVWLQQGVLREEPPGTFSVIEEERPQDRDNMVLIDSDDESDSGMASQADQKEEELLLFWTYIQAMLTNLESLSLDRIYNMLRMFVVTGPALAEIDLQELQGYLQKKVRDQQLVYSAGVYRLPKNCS

| Compound | APC Flag 8 pt |
| --- | --- |
| O=[N+]([O-])c1ccc(Oc2c(Cl)cc(S(=O)(=O)NCC3CC3)cc2Cl)c(Cl)c1 [Compound 120, N-(Cyclopropylmethyl)-3,5-Dichloro-4-(2-Chloro-4-Nitrophenoxy) Benzenesulfonamide] | + |
| NS(=O)(=O)c1cc(Cl)c(Oc2ccc([N+](=O)[O-])cc2Cl)c(Cl)c1 [Compound 124, 3,5-dichloro-4-(2-chloro-4-nitrophenoxy)benzenesulfonamide] | + |
| O=[N+]([O-])c1ccc(Oc2c(Cl)cc(S(=O)(=O)NCc3ccc(Br)cc3)cc2Cl)c(Cl)c1 [Compound 128, N-(4-bromobenzyl)-3,5-dichloro-4-(2-chloro-4-nitrophenoxy)benzenesulfonamide] | − |
| CC(C)Oc1ccc(NS(=O)(=O)c2cc(Cl)c(Oc3ccc([N+](=O)[O-])cc3Cl)c(Cl)c2)cc1 [Compound 134, 3,5-dichloro-4-(2-chloro-4-nitrophenoxy)-N-[4-isopropoxyphenyl]benzenesulfonamide] | + |
| O=C(NCC1CC1)[C@@H]1CCCN1S(=O)(=O)c1cc(Cl)c(Oc2ccc([N+](=O)[O-])cc2Cl)c(Cl)c1 [Compound 139, N-(cyclopropylmethyl)-1-{[3,5-dichloro-4-(2-chloro-4-nitrophenoxy)phenyl]sulfonyl}prolinamide] | − |
| O=C(NCC1CC1)c1cccc(NS(=O)(=O)c2cc(Cl)c(Oc3ccc([N+](=O)[O-])cc3Cl)c(Cl)c2)c1 [Compound 151, N-(cyclopropylmethyl)-3-({[3,5-dichloro-4-(2-chloro-4-nitrophenoxy)phenyl]sulfonyl}amino)benzamide] | + |
| CN(c1cccc(Cl)c1)S(=O)(=O)c1cc(Cl)c(Oc2ccc([N+](=O)[O-])cc2Cl)c(Cl)c1 [Compound 153, 3,5-dichloro-4-(2-chloro-4-nitrophenoxy)-N-(3-chlorophenyl)-N-methylbenzenesulfonamide] | − |
| COc1ccc(Cl)cc1NS(=O)(=O)c1cc(Cl)c(Oc2ccc([N+](=O)[O-])cc2Cl)c(Cl)c1 [Compound 164, 3,5-dichloro-N-(5-chloro-2-methoxyphenyl)-(2-chloro-4-nitrophenoxy)lbenzenesulfonamide] | + |

The next lines start with the values.

| APC Flag 8 pt | Compound |
| --- | --- |
| − | O=C(Nc1cc(Cl)ccc1Cl)N1CCC(Oc2ncccn2)CC1 [Compound 310, N-(2,5-dichlorophenyl)-4-(pyrimidin-2-yloxy)piperidine-1-carboxamide] |
| − | O=[N+]([O-])c1ccc(Oc2c(Cl)cc(S(=O)(=O)N3CCOCC3)cc2Cl)c(Cl)c1 [Example 15, 4-{[3,5-dichloro-4-(2-chloro-4-nitro-phenoxy)phenyl]sulfonyl}morpholine] |
| − | CC1CCN(S(=O)(=O)c2cc(Cl)c(Oc3ccc([N+](=O)[O-])cc3Cl)c(Cl)c2)CC1 [Example 19, 1-{[3,5-dichloro-4-(2-chloro-4-nitrophenoxy)phenyl]sulfonyl}-4-methylpiperidine] |
| + | CC1CC(C)CN(S(=O)(=O)c2cc(Cl)c(Oc3ccc([N+](=O)[O-])cc3Cl)c(Cl)c2)C1 (stereo not drawn) [Example 20, 1-{[3,5-dichloro-4-(2-chloro-4-nitrophenoxy)phenyl]sulfonyl}-3,5-dimethylpiperidine] |
| − | O=[N+]([O-])c1ccc(Oc2c(Cl)cc(S(=O)(=O)N3CCCC3)cc2Cl)c(Cl)c1 [Example 22, 1-{[3,5-dichloro-4-(2-chloro-4-nitrophenoxy)phenyl]sulfonyl}pyrrolidine] |
| − | N=C(NS(=O)(=O)c1cc(Cl)c(Oc2ccc([N+](=O)[O-])cc2)c(Cl)c1)c1ccc(Cl)cc1 [Example 34, 4-chloro-N-{[3,5-dichloro4-(4-nitrophenoxy)phenyl]sulfonyl}benzenecarboximidamide] |
| − | CC(=N)NS(=O)(=O)c1cc(Cl)c(Oc2ccc([N+](=O)[O-])cc2)c(Cl)c1 [Example 63, N-{[3,5-dichloro-4-(4-nitrophenoxy)phenyl]sulfonyl}ethanimidamide] |
